Test results published in PMC5432571 (Frontiers in Molecular Neuroscience, 2017).

Experiments:
α2 GlyR = molecular target: T1, α2 GlyR (Homo sapiens, UniProt P23416); test: Whole-cell patch-clamp of glycine-induced currents, α2 GlyR expressed in CHO cells; assay type: cell-based; settings: PTX 20 μM; glycine 30 μM; Vhold −30 mV
T1 construct: expressed in transfected cells; host or cells: CHO cells
T1 sequence (P23416 28-452 isoform P23416-2 limits assumed): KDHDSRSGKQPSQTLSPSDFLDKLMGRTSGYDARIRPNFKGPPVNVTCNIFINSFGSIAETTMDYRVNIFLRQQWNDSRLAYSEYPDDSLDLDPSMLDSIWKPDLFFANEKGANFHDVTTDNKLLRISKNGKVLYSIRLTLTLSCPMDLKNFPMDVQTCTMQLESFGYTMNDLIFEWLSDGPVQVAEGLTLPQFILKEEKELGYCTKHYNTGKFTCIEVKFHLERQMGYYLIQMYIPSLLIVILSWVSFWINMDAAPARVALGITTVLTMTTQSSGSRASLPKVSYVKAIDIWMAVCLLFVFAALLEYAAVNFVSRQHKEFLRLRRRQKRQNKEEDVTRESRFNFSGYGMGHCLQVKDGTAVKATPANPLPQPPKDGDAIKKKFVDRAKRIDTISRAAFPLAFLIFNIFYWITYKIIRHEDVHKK
Protocol: (§1) The experiments were carried out on cultured Chinese hamster ovary (CHO) cells obtained from the American Type Tissue Culture Collection (ATCC, Molsheim, France) that were maintained in culture conditions as previously described (Mukhtarov et al., [2013]; Maleeva et al., [2015]).
(§2) One day before transfection, cells were plated on the cover slips (12 mm in diameter) and placed inside 35-mm cell culture dishes with 2 ml of medium. Transfection was performed using the Lipofectamine 3000 protocol (Life Technology, USA). To facilitate identification of transfected cells a green fluorescent protein (GFP) was added to the transfection mixture. For expression of functional heteromeric receptors, cells were simultaneously transfected with cDNAs of α and β subunits in the ratio 1:10. Three hours after the initial exposure of cells to the cDNAs the culture medium was replaced with that containing strychnine (1 μM), which prevents spontaneous activation of GlyRs. Electrophysiological recordings were performed in the fluorescent cells 24–72 h after transfection.
(§3) Whole-cell and outside-out recordings were performed at room temperature (20–25°C) using an EPC-9 amplifier (HEKA Elektronik, Germany). Cells were continuously superfused with external solution containing (mM): NaCl 140, CaCl2 2, KCl 2.8, MgCl2 4, HEPES 20, glucose 10; pH 7.4; 320–330 mOsm. Intracellular solution used for filling recording patch pipettes contained (mM): CsCl 140, CaCl2 6, MgCl2 2, MgATP 2, NaGTP 0.4, HEPES/CsOH 10, BAPTA (tetrapotassium salt) 2; pH 7.3; 290 mOsm. Two different protocols of solutions application were used in this study. […] A “ramp protocol” implies the gradual change of Vhold alternately from −80 to +80 mV and from +80 to −80 mV during 1 s, Vhold was fixed at −80 or +80 mV at the beginning and at the end of the ramp for 500 ms (Figure 2B).
(§4) Recording pipettes were pulled from borosilicate glass capillaries (Harvard Apparatus Ltd, USA) and had resistances of 5–10 MOhm. For the rapid replacement of the solutions, the fast application system was used. Three parallel rectangular tubes (100 × 100 μm) were positioned 40–50 μm above the recorded cell. The movement of the tubes was controlled by a computer-driven fast exchange system (SF 77A Perfusion Fast-Step, Warner, USA) allowing a 10–90% solution exchange in 3–5 ms, as measured by open electrode controls (1/10 external solution/water). Cells with low input resistance (<150 MOhm) and a rapid run-down (>30% with repetitive application) were excluded from analysis.
(§5) Electrophysiological recordings were performed using PatchMaster (HEKA Electronic, Germany) software.
(§6) The fractional electrical distance from the external side of the membrane (δ) at which bound NFA blocked the current was calculated using the Woodhull equation: IC50(V)=IC50(0) exp (−δFV/RT), where IC50(V) is IC50 at the given membrane potential, IC50(0) – at 0 mV, V – membrane potential and F, R, T have their usual meanings. δ was determined from a plot of IC50 values against membrane potential.

α1β GlyR = molecular target: T2, α1β GlyR (Homo sapiens, UniProt P23415+P48167); test: Whole-cell patch-clamp of glycine-induced currents, heteromeric α1β GlyR expressed in CHO cells; assay type: cell-based; settings: PTX 20 μM; glycine 30 μM; Vhold −30 mV
T2 construct: expressed in transfected cells; host or cells: CHO cells
Protocol: as §1, §2, §3, §4, §5

homomeric α1 GlyR = molecular target: T3, homomeric α1 GlyR (Homo sapiens, UniProt P23415); test: Whole-cell patch-clamp of glycine-induced currents, α1 GlyR expressed in CHO cells; assay type: cell-based; settings: PTX 20 μM; glycine 30 μM; Vhold −30 mV
T3 construct: expressed in transfected cells; host or cells: CHO cells
T3 sequence (P23415 29-449 isoform P23415-2 limits assumed): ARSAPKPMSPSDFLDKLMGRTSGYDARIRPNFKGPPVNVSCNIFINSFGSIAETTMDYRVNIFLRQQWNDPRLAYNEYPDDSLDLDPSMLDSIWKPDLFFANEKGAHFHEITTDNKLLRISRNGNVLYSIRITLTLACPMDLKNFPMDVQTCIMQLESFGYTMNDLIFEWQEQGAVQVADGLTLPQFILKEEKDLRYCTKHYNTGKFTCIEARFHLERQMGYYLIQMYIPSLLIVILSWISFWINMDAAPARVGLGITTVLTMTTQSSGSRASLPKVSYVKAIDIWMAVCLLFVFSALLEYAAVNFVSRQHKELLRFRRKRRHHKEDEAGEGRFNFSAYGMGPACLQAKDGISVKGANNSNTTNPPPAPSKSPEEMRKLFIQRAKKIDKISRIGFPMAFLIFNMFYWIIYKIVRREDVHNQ
Protocol: as §1, §2, §3, §4, §5, §6

α2β GlyR = molecular target: T4, α2β GlyR (Homo sapiens, UniProt P23416+P48167); test: Whole-cell patch-clamp of glycine-induced currents, heteromeric α2β GlyR expressed in CHO cells; assay type: cell-based; settings: PTX 20 μM; glycine 30 μM; Vhold −30 mV
T4 construct: expressed in transfected cells; host or cells: CHO cells
Protocol: as §1, §2, §3, §4, §5

α2 GlyRs = settings: read-out: mean value of EC50 for glycine; ref Maleeva et al., 2015; cited from earlier work

T2 sequence (P48167 23-497, one chain of several): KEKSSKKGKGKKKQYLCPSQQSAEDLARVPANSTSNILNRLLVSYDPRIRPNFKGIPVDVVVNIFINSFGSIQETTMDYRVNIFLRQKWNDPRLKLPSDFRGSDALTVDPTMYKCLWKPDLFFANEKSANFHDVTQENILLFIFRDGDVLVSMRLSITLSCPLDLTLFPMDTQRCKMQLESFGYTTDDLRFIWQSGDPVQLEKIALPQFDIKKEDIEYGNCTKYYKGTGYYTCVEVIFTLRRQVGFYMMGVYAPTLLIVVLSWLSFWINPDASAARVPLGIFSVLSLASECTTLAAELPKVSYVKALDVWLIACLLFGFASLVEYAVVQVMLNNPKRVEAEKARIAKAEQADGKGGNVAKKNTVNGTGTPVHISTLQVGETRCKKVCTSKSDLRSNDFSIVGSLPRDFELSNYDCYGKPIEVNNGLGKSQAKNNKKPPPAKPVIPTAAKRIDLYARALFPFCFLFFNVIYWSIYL
T4 sequence (P48167 23-497, one chain of several): as above

Compound	amplitude of current, % of the control (α2 GlyR)	current, % from the control (α1β GlyR)	amplitude of current, % of the control (homomeric α1 GlyR)	current, % from the control (α2β GlyR)	EC50 (α2 GlyRs)
picrotoxin [PTX]	3 ± 1%	75 ± 2%	27 ± 3%	41 ± 4%	
NCC(=O)O [glycine]					42 ± 2 µM
